Where “and” joins values, the source holds several entries; their conditions need not be identical. Equal values may be shown once. Read-outs that look alike come from different tables or passages of the source. Each block holds one molecule with its values, some of them ahead of it. Square brackets hold non-standard residues; d marks the D form. Peptide text beside a SMILES is read from it. hPhe = N[C@@H](CCc1ccccc1)C(=O)O; Nle = CCCC[C@H](N)C(=O)O; Dap = NC[C@H](N)C(=O)O
What was measured:
mMC3R [1] = biological target: T1, mMC3R (Mus musculus, UniProt P33033); settings: for Antagonist mMC3R pA2: Schild analysis with agonist NDP-MSH, pA2 = −log[Ki]
mMC3R [2] = biological target: T1, mMC3R
mMC3R [3] = biological target: T1, mMC3R; settings: cited from earlier work
mMC4R [4] = biological target: T2, mMC4R (Mus musculus, UniProt P56450); settings: cited from earlier work
mMC5R = mMC5R (Mus musculus, UniProt P41149); assay: AlphaScreen cAMP assay, agonist/inverse agonist activity at mMC5R; settings: for mMC5R inverse agonist efficacy (−X%): relative to basal, apparent sigmoidal dose-response; for mMC5R activity in words: up to 100 μM
mMC4R [5] = biological target: T2, mMC4R; settings: for fold increase in potency at the mMC4R compared to 1: calculated using Ki values from Schild analysis
mMC1R [6] = biological target: T3, mMC1R (Mus musculus, UniProt Q01727); assay: cell-based
mMC1R [7] = biological target: T3, mMC1R; settings: for mMC1R agonist activity in words: up to 100 μM
mMC4R [8] = biological target: T2, mMC4R
[9] = biological target: mouse melanocortin-1 receptor (mouse) (UniProt Q01727)
MC1R = settings: read-out: MC1R agonist EC50; cited from earlier work
[10] = calculated using Ki values from Schild analysis
[11] = β-galactosidase reporter gene assay
[12] = calculated using antagonist Ki values
[13] = maximal stimulation relative to NDP-MSH, sigmoidal dose-response

T2 sequence (P56450 whole entry): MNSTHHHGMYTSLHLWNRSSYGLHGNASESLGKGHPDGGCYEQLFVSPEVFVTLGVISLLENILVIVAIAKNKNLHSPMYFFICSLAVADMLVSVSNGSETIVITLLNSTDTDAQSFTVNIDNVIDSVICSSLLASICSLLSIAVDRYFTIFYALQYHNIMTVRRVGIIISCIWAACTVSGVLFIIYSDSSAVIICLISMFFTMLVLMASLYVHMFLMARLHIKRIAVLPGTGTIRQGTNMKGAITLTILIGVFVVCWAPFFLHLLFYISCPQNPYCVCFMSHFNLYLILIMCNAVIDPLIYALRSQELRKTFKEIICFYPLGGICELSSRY
T1 sequence (P33033 whole entry): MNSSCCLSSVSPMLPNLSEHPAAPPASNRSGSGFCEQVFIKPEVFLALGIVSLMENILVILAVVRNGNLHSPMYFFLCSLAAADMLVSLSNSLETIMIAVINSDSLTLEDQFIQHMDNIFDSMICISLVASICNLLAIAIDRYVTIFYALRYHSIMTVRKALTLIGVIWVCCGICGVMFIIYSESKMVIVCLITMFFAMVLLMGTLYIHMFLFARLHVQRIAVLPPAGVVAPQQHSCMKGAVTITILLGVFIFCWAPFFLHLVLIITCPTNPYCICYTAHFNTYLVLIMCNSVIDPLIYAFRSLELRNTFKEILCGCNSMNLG
Chain of mMC5R (P41149 whole entry): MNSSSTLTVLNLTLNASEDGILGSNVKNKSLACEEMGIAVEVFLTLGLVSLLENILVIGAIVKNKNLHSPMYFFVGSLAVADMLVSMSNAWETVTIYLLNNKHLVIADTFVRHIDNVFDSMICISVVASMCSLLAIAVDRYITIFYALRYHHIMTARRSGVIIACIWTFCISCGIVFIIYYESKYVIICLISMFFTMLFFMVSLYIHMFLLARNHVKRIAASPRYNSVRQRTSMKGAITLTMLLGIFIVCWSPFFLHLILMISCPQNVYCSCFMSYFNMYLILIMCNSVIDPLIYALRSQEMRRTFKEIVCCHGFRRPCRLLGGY
T3 sequence (Q01727 whole entry): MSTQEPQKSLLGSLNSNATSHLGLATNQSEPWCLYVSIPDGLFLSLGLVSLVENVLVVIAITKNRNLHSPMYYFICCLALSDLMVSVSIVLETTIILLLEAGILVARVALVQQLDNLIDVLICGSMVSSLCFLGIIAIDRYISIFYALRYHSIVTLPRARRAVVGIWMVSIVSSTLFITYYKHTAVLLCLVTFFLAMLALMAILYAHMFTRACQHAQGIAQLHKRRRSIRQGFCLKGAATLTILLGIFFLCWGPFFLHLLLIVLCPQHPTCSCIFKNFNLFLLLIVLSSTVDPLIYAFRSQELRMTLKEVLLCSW
Chain of mouse melanocortin-1 receptor (mouse) (Q01727 whole entry): as above

- fold increase in potency at the mMC3R compared to 1 (mMC3R [1]; [10]): greater than 10 fold
Molecule: N=C(N)NCCC[C@@H]1NC(=O)[C@H](CCc2ccccc2)NC(=O)[C@H](Cc2ccccc2)NC(=O)[C@H](CCCNC(=N)N)NC(=O)[C@@H]2CCCN2C(=O)[C@H]2CCCN2C(=O)[C@H](Cc2ccccc2)NC(=O)[C@H](CO)NC1=O [Compound 23, c[Pro-Arg-Phe-hPhe-Arg-Ser-Phe-DPro]] (cyclo(RF[hPhe]RSF[dP]P))

Molecule: C[C@@H]1NC(=O)[C@H](CC(N)=O)NC(=O)[C@H](CCc2ccccc2)NC(=O)[C@H](Cc2ccccc2)NC(=O)[C@H](CCCNC(=N)N)NC(=O)[C@@H]2CCCN2C(=O)[C@H]2CCCN2C(=O)[C@H](Cc2ccccc2)NC1=O [Compound 13, c[Pro-Arg-Phe-hPhe-Asn-Ala-Phe-DPro]]
- Antagonist mMC3R pA2 (mMC3R [2]): 5.6±0.2
- mMC3R antagonist activity in words (mMC3R [3]; [11]): did not possess antagonist activity
- fold less potent than 1 at the mMC4R (mMC4R [4]; [11]): 5 fold
- EC50 (mMC5R): > 100000 nM
- Kb (mMC3R [1]): 2510 nM
- Antagonist mMC3R pA2 (mMC3R [1]): 5.6
- fold reduced potency at the mMC3R compared to 1 (mMC3R [1]; [10]): 5 fold
- Kb (mMC4R [5]): 5.01 nM
- mMC4R potency compared to lead peptide 1 in words (mMC4R [5]): equipotent to the lead peptide
- selectivity for the mMC4R over the mMC3R (mMC4R [5]; [12]): approximately 500 fold

Molecule: N=C(N)NCCC[C@@H]1NC(=O)[C@@H]2CCCN2C(=O)[C@H]2CCCN2C(=O)[C@H](Cc2ccccc2)NC(=O)[C@H](CO)NC(=O)[C@H](CC(N)=O)NC(=O)[C@H](Cc2ccccc2)NC(=O)[C@H](Cc2ccccc2)NC1=O [Compound 3, c[Pro-Arg-Phe-Phe-Asn-Ser-Phe-DPro]] (cyclo(RFFNSF[dP]P))
- EC50 (mMC1R [6]): 1200 ± 300 nM
- EC50 (mMC5R): 6 ± 3 nM
- mMC5R inverse agonist efficacy (−X%) (mMC5R): −14%
- mMC5R activity in words (mMC5R): inverse agonist activity was observed
- Kb (mMC3R [1]): 794 nM
- Kb (mMC4R [5]): 7.94 nM
- fold increase in potency at the mMC4R compared to 1 (mMC4R [5]): ≤ 10 fold

Molecule: C[C@@H]1NC(=O)[C@H](CN)NC(=O)[C@H](Cc2ccccc2)NC(=O)[C@H](Cc2ccccc2)NC(=O)[C@H](CCCNC(=N)N)NC(=O)[C@@H]2CCCN2C(=O)[C@H]2CCCN2C(=O)[C@H](Cc2ccccc2)NC1=O [Compound 5, c[Pro-Arg-Phe-Phe-Dap-Ala-Phe-DPro]]
- mMC1R partial agonist activity (X%), receptor stimulated to given percent (mMC1R [7]; [13]): 80%
- EC50 (mMC1R [6]): 1600 ± 400 nM
- EC50 (mMC5R): > 100000 nM
- Kb (mMC3R [1]): 63.1 nM

- mMC1R agonist activity in words (mMC1R [7]): did not possess agonist activity
- fold increase in potency at the mMC3R compared to 1 (mMC3R [1]; [10]): greater than 10 fold
Molecule: CCCC[C@@H]1NC(=O)[C@H](C)NC(=O)[C@H](CCCNC(=N)N)NC(=O)[C@H](CCc2ccccc2)NC(=O)[C@H](Cc2ccccc2)NC(=O)[C@H](CCCNC(=N)N)NC(=O)[C@@H]2CCCN2C(=O)[C@H]2CCCN2C1=O [Compound 22, c[Pro-Arg-Phe-hPhe-Arg-Ala-Nle-DPro]] (cyclo(RF[hPhe]RA[Nle][dP]P))

- fold increase in potency at the mMC4R compared to 1 (mMC4R [5]): ≥ 10 fold
Molecule: CCCC[C@@H]1NC(=O)[C@H](CO)NC(=O)[C@H](CN)NC(=O)[C@H](Cc2ccccc2)NC(=O)[C@H](Cc2ccccc2)NC(=O)[C@H](CCCNC(=N)N)NC(=O)[C@@H]2CCCN2C(=O)[C@H]2CCCN2C1=O [Compound 8, c[Pro-Arg-Phe-Phe-Dap-Ser-Nle-DPro]] (cyclo(RFF[Dap]S[Nle][dP]P))

Molecule: C[C@@H]1NC(=O)[C@H](CCCNC(=N)N)NC(=O)[C@H](CCc2ccccc2)NC(=O)[C@H](Cc2ccccc2)NC(=O)[C@H](CCCNC(=N)N)NC(=O)[C@@H]2CCCN2C(=O)[C@H]2CCCN2C(=O)[C@H](Cc2ccccc2)NC1=O [Compound 21, c[Pro-Arg-Phe-hPhe-Arg-Ala-Phe-DPro]] (cyclo(RF[hPhe]RAF[dP]P))
- Antagonist mMC4R pA2 (mMC4R [8]): 8.9
- mMC5R activity in words (mMC5R): did not result in mMC5R stimulation
- fold less potent than AGRP at the mMC3R (mMC3R [1]): 5 fold
- mMC4R potency compared to AGRP in words (mMC4R [5]): equipotent to AGRP
- fold increase in potency at the mMC4R compared to 1 (mMC4R [5]): 6 fold
- fold decrease in mMC4R selectivity compared to 1 (mMC4R [5]; [12]): 7 fold

Molecule: CCCC[C@@H]1NC(=O)[C@H](CO)NC(=O)[C@H](CC(N)=O)NC(=O)[C@H](CCc2ccccc2)NC(=O)[C@H](Cc2ccccc2)NC(=O)[C@H](CCCNC(=N)N)NC(=O)[C@@H]2CCCN2C(=O)[C@H]2CCCN2C1=O [Compound 16, c[Pro-Arg-Phe-hPhe-Asn-Ser-Nle-DPro]] (cyclo(RF[hPhe]NS[Nle][dP]P))
- mMC5R activity in words (mMC5R): did not result in mMC5R stimulation
- Antagonist mMC3R pA2 (mMC3R [1]): 6.33
- fold more potent than AGRP at the mMC4R (mMC4R [5]): 3–6 fold
- Antagonist mMC4R pA2 (mMC4R [5]; Schild analysis with agonist NDP-MSH, pA2 = −log[Ki]): 9.23
- selectivity for the mMC4R over the mMC3R (mMC4R [5]; [12]): 600–800 fold and 800 fold

- mMC1R partial agonist activity (X%), receptor stimulated to given percent (mMC1R [7]): 25%
- fold increase in potency at the mMC3R compared to 1 (mMC3R [1]; [10]): greater than 10 fold
Molecule: CCCC[C@@H]1NC(=O)[C@H](CO)NC(=O)[C@H](CCCNC(=N)N)NC(=O)[C@H](CCc2ccccc2)NC(=O)[C@H](Cc2ccccc2)NC(=O)[C@H](CCCNC(=N)N)NC(=O)[C@@H]2CCCN2C(=O)[C@H]2CCCN2C1=O [Compound 24, c[Pro-Arg-Phe-hPhe-Arg-Ser-Nle-DPro]] (cyclo(RF[hPhe]RS[Nle][dP]P))

- mMC1R partial agonist activity (X%), receptor stimulated to given percent (mMC1R [7]): 25%
- EC50 (mMC1R [6]): 600 ± 200 nM
- EC50 (mMC5R): > 100000 nM
- Kb (mMC3R [1]): 39.8 nM
- fold increase in potency at the mMC3R compared to 1 (mMC3R [1]; [10]): greater than 10 fold
- Kb (mMC4R [5]): 2 nM
Molecule: C[C@@H]1NC(=O)[C@H](CCCNC(=N)N)NC(=O)[C@H](Cc2ccccc2)NC(=O)[C@H](Cc2ccccc2)NC(=O)[C@H](CCCNC(=N)N)NC(=O)[C@@H]2CCCN2C(=O)[C@H]2CCCN2C(=O)[C@H](Cc2ccccc2)NC1=O [Compound 9, c[Pro-Arg-Phe-Phe-Arg-Ala-Phe-DPro]] (cyclo(RFFRAF[dP]P))

- mMC5R inverse agonist efficacy −X% @ 100 μM (mMC5R; at 100 μM relative to basal, no sigmoidal dose-response): −35% @ 100μM
- mMC5R activity in words (mMC5R): inverse agonist activity was observed
- fold increase in potency at the mMC4R compared to 1 (mMC4R [5]): ≤ 10 fold
Molecule: CCCC[C@@H]1NC(=O)[C@H](CO)NC(=O)[C@H](CC(N)=O)NC(=O)[C@H](Cc2ccccc2)NC(=O)[C@H](Cc2ccccc2)NC(=O)[C@H](CCCNC(=N)N)NC(=O)[C@@H]2CCCN2C(=O)[C@H]2CCCN2C1=O [Compound 4, c[Pro-Arg-Phe-Phe-Asn-Ser-Nle-DPro]] (cyclo(RFFNS[Nle][dP]P))

- agonist EC50, cAMP (AlphaScreen), HEK293 cells stably expressing mMC1R [9]: 400 nM
Molecule: cyclo(PRF[hPhe]RS[Nle][dP])

- fold increase in potency at the mMC3R compared to 1 (mMC3R [1]; [10]): greater than 10 fold
- fold increase in potency at the mMC4R compared to 1 (mMC4R [5]): ≥ 10 fold
Molecule: CCCC[C@@H]1NC(=O)[C@H](C)NC(=O)[C@H](CCCNC(=N)N)NC(=O)[C@H](Cc2ccccc2)NC(=O)[C@H](Cc2ccccc2)NC(=O)[C@H](CCCNC(=N)N)NC(=O)[C@@H]2CCCN2C(=O)[C@H]2CCCN2C1=O [Compound 10, c[Pro-Arg-Phe-Phe-Arg-Ala-Nle-DPro]] (cyclo(RFFRA[Nle][dP]P))

- mMC1R agonist activity in words (mMC1R [7]): did not possess agonist activity
Molecule: CCCC[C@@H]1NC(=O)[C@H](C)NC(=O)[C@H](CN)NC(=O)[C@H](CCc2ccccc2)NC(=O)[C@H](Cc2ccccc2)NC(=O)[C@H](CCCNC(=N)N)NC(=O)[C@@H]2CCCN2C(=O)[C@H]2CCCN2C1=O [Compound 18, c[Pro-Arg-Phe-hPhe-Dap-Ala-Nle-DPro]] (cyclo(RF[hPhe][Dap]A[Nle][dP]P))

Molecule: CCCC[C@@H]1NC(=O)[C@H](CO)NC(=O)[C@H](CN)NC(=O)[C@H](CCc2ccccc2)NC(=O)[C@H](Cc2ccccc2)NC(=O)[C@H](CCCNC(=N)N)NC(=O)[C@@H]2CCCN2C(=O)[C@H]2CCCN2C1=O [Compound 20, c[Pro-Arg-Phe-hPhe-Dap-Ser-Nle-DPro]] (cyclo(RF[hPhe][Dap]S[Nle][dP]P))
- mMC5R activity in words (mMC5R): did not result in mMC5R stimulation
- fold more potent than AGRP at the mMC4R (mMC4R [5]): 3–6 fold
- fold increase in potency at the mMC4R compared to 1 (mMC4R [5]): 25 fold
- selectivity for the mMC4R over the mMC3R (mMC4R [5]; [12]): 600–800 fold and 600 fold

- fold increase in potency at the mMC4R compared to 1 (mMC4R [5]): ≥ 10 fold
Molecule: CCCC[C@@H]1NC(=O)[C@H](CO)NC(=O)[C@H](CCCNC(=N)N)NC(=O)[C@H](Cc2ccccc2)NC(=O)[C@H](Cc2ccccc2)NC(=O)[C@H](CCCNC(=N)N)NC(=O)[C@@H]2CCCN2C(=O)[C@H]2CCCN2C1=O [Compound 12, c[Pro-Arg-Phe-Phe-Arg-Ser-Nle-DPro]] (cyclo(RFFRS[Nle][dP]P))

Molecule: Tyr-c[Cys-Arg-Phe-Phe-Asn-Ala-Phe-Cys]-Tyr [hAGRP(109–118), reference compound]
- mMC3R activity in words (mMC3R [3]; β-galactosidase reporter gene bioassay, up to 10 μM): No activity (Agonist or Antagonist)
- Antagonist mMC4R pA2 (mMC4R [4]; β-galactosidase reporter gene bioassay): 6.8±0.4
- EC50 (MC1R): 3000 nM

Molecule: CCCC[C@@H]1NC(=O)[C@H](C)NC(=O)[C@H](CC(N)=O)NC(=O)[C@H](Cc2ccccc2)NC(=O)[C@H](Cc2ccccc2)NC(=O)[C@H](CCCNC(=N)N)NC(=O)[C@@H]2CCCN2C(=O)[C@H]2CCCN2C1=O [Compound 2, c[Pro-Arg-Phe-Phe-Asn-Ala-Nle-DPro]]
- mMC1R partial agonist activity (X%), receptor stimulated to given percent (mMC1R [7]; [13]): 50%
- EC50 (mMC1R [6]): 1700 ± 300 nM
- EC50 (mMC5R): 10 ± 6 nM
- mMC5R inverse agonist efficacy (−X%) (mMC5R): −20%
- mMC5R activity in words (mMC5R): inverse agonist activity was observed
- Kb (mMC3R [1]): 251 nM
- Kb (mMC4R [5]): 1.26 nM
- fold increase in potency at the mMC4R compared to 1 (mMC4R [5]): ≤ 10 fold

- mMC1R agonist activity in words (mMC1R [7]): did not possess agonist activity
Molecule: CCCC[C@@H]1NC(=O)[C@H](C)NC(=O)[C@H](CC(N)=O)NC(=O)[C@H](CCc2ccccc2)NC(=O)[C@H](Cc2ccccc2)NC(=O)[C@H](CCCNC(=N)N)NC(=O)[C@@H]2CCCN2C(=O)[C@H]2CCCN2C1=O [Compound 14, c[Pro-Arg-Phe-hPhe-Asn-Ala-Nle-DPro]]
